The target in the assay is T1, ERR1 (also known as ERR-α or ERR-1) (Homo sapiens, UniProt P11474).
T1 sequence (P11474 193-421 limits assumed): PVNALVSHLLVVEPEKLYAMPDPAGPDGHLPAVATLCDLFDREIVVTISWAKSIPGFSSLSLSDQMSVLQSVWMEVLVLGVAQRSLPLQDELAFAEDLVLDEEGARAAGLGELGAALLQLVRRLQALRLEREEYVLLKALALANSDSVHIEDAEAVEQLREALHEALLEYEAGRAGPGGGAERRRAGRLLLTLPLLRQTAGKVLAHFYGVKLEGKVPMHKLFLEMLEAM
Description: TR-FRET assay (disruption of co-activator peptide binding). The assay is classed as biochemical. Particulars: 6His-tagged ERR1 LBD, GST-hSRC2 co-activator polypeptide; average of 3 independent experiments. Summed up:
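Compound-induced loss of co-activator recruitment, read by time-resolved FRET (excitation 340 nm; 615 and 665 nm emission) after 4-18 h at 25 °C. Reagents: 6 nM ERR1LBD, 6 nM GST-SRC-2, 30 nM Eu cryptate, 7.5 nM XL665, pH 8 Tris buffer. Values: hyperbolic fits averaged over 3 independent runs.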
A general note: In TR-FRET formats the signal depends on donor and acceptor labels being close together.

Molecules are shown by their SMILES.

The EC50 is the concentration needed to bring the measured effect to its halfway point. Higher therefore signals a need for much substance. `O=C1N=C(N2CCNC[C@@H]2CO)S/C1=C\c1ccc2c(cnn2Cc2ccc(C(F)(F)F)cc2C(F)(F)F)c1` [Example 104, 5-[1-(2,4-Bis-trifluoromethyl-benzyl)-1H-indazol-5-ylmethylene]-2-(2-hydroxymethyl-piperazin-1-yl)-thiazol-4-one] came in with an EC50 of 18.2 nM.
Molecule `O=C1N=C(N2CCNC[C@@H]2CO)S/C1=C\c1ccc2c(cnn2Cc2ccc(Cl)cc2C(F)(F)F)c1` [Example 105, 5-[1-(4-Chloro-2-trifluoromethyl-benzyl)-1H-indazol-5-ylmethylene]-2-(2-hydroxymethyl-piperazin-1-yl)-thiazol-4-one] gave an EC50 of 40.9 nM.
Then `NC(=O)C1CCN(C2=NC(=O)/C(=C/c3ccc4c(cnn4Cc4ccc(C(F)(F)F)cc4C(F)(F)F)c3)S2)CC1` [Example 106, 1-{5-[1-(2,4-Bis-trifluoromethyl-benzyl)-1H-indazol-5-ylmethylene]-4-oxo-4,5-dihydro-thiazol-2-yl}-piperidine-4-carboxylic acid amide], with 21 nM; and `CC(=O)NC1CCN(C2=NC(=O)/C(=C/c3ccc4c(cnn4Cc4ccc(C(F)(F)F)cc4C(F)(F)F)c3)S2)CC1` [Example 108, N-(1-{5-[1-(2,4-Bis-trifluoromethyl-benzyl)-1H-indazol-5-ylmethylene]-4-oxo-4,5-dihydro-thiazol-2-yl}-piperidin-4-yl)-acetamide], with 30.2 nM; and `O=C1N=C(N2CCC(c3nnn[nH]3)CC2)S/C1=C\c1ccc2c(cnn2Cc2ccc(C(F)(F)F)cc2C(F)(F)F)c1` [Example 109, 5-[1-(2,4-Bis-trifluoromethyl-benzyl)-1H-indazol-5-ylmethylene]-2-[4-(1H-tetrazol-5-yl)piperidin-1-yl]-thiazol-4-one], with 36 nM.
For the molecule `O=C1N=C(N2CCC(c3nnn[nH]3)CC2)S/C1=C\c1ccc2c(cnn2Cc2ccc(Cl)cc2C(F)(F)F)c1` [Example 110, 5-[1-(4-Chloro-2-trifluoromethyl-benzyl)-1H-indazol-5-ylmethylene]-2-[4-(1H-tetrazol-5-yl)-piperidin-1-yl]-thiazol-4-one], the concentration giving a half-maximal response (EC50) came to 18.6 nM.
For `CS(=O)(=O)NC1CCN(C2=NC(=O)/C(=C/c3ccc4c(cnn4Cc4ccc(Cl)cc4C(F)(F)F)c3)S2)CC1` [Example 111, N-(1-{5-[1-(4-Chloro-2-trifluoromethyl-benzyl)-1H-indazol-5-ylmethylene]-4-oxo-4,5-dihydro-thiazol-2-yl}-piperidin-4-yl)-methanesulfonamide] the value was 6.9 nM; for `COC1CCN(C2=NC(=O)/C(=C/c3ccc4c(cnn4Cc4ccc(Cl)cc4C(F)(F)F)c3)S2)CC1` [Example 112, 5-[1-(4-Chloro-2-trifluoromethyl-benzyl)-1H-indazol-5-ylmethylene]-2-(4-methoxy-piperidin-1-yl)-thiazol-4-one], 29 nM.
The molecule `COC1CN(C2=NC(=O)/C(=C/c3ccc4c(cnn4Cc4ccc(Cl)cc4C(F)(F)F)c3)S2)C1` [Example 113, 5-[1-(4-Chloro-2-trifluoromethyl-benzyl)-1H-indazol-5-ylmethylene]-2-(3-methoxy-azetidin-1-yl)-thiazol-4-one] yielded an EC50 of 14 nM.
Molecule `O=C1CCN(C2=NC(=O)/C(=C/c3ccc4c(cnn4Cc4ccc(Cl)cc4C(F)(F)F)c3)S2)CCN1` [Example 114, 1-{5-[1-(4-Chloro-2-trifluoromethyl-benzyl)-1H-indazol-5-ylmethylene]-4-oxo-4,5-dihydro-thiazol-2-yl}-[1,4]diazepan-5-one] registered an EC50 of 13 nM.
The molecule `O=C(O)CN1CCN(C2=NC(=O)/C(=C/c3ccc4c(cnn4Cc4ccc(Cl)cc4C(F)(F)F)c3)S2)CC1` [Example 117] registered an EC50 of 8.3 nM.
Take `O=C1CCN(C2=NC(=O)/C(=C/c3ccc4c(cnn4Cc4ccc(C(F)(F)F)cc4C(F)(F)F)c3)S2)CCN1` [Example 118, 1-{5-[1-(2,4-Bis-trifluoromethyl-benzyl)-1H-indazol-5-ylmethylene]-4-oxo-4,5-dihydro-thiazol-2-yl}-[1,4]diazepan-5-one]: a half-maximal effect (EC50) was put at 7.3 nM.
Molecule `O=C(O)CN1CCN(C2=NC(=O)/C(=C/c3ccc4c(cnn4Cc4ccc(C(F)(F)F)cc4C(F)(F)F)c3)S2)CC1` [Example 119] had an EC50 of 14 nM.
As to `CS(=O)(=O)NC1CCN(C2=NC(=O)/C(=C/c3ccc4c(cnn4Cc4ccc(C(F)(F)F)cc4C(F)(F)F)c3)S2)CC1` [Example 120, N-(1-{5-[1-(2,4-Bis-trifluoromethyl-benzyl)-1H-indazol-5-ylmethylene]-4-oxo-4,5-dihydro-thiazol-2-yl}-piperidin-4-yl)-methanesulfonamide], the EC50 was determined as 27 nM.
`O=C1N=C(N2CCN(C3CC3)CC2)S/C1=C\c1ccc2c(cnn2Cc2ccc(Cl)cc2C(F)(F)F)c1` [Example 121, 5-[1-(4-Chloro-2-trifluoromethyl-benzyl)-1H-indazol-5-ylmethylene]-2-(4-cyclopropyl-piperazin-1-yl)-thiazol-4-one] displayed an EC50 of 25.3 nM.
As to `O=C1N=C(N2CCN(C3CC3)CC2)S/C1=C\c1ccc2c(cnn2Cc2ccc(C(F)(F)F)cc2C(F)(F)F)c1` [Example 122, 5-[1-(2,4-Bis-trifluoromethyl-benzyl)-1H-indazol-5-ylmethylene]-2-(4-cyclopropyl-piperazin-1-yl)-thiazol-4-one], the concentration giving a half-maximal response (EC50) was determined as 41.8 nM.
Molecule `CC[C@H]1CN(C2=NC(=O)/C(=C/c3ccc4c(cnn4Cc4ccc(C(F)(F)F)cc4C(F)(F)F)c3)S2)CCN1` [Example 124, 5-[1-(2,4-Bis-trifluoromethyl-benzyl)-1H-indazol-5-ylmethylene]-2-(3-ethyl-piperazin-1-yl)-thiazol-4-one] showed an EC50 of 9 nM.
On to `O=C1N=C(N2CCCO2)S/C1=C\c1ccc2c(cnn2Cc2ccc(Cl)cc2C(F)(F)F)c1` [Example 126, 5-[1-(4-Chloro-2-trifluoromethyl-benzyl)-1H-indazol-5-ylmethylene]-2-isoxazolidin-2-yl-thiazol-4-one], for which the half-maximal effective concentration (EC50) turned out to be 24 nM.
`CCOC(=O)CN1CCN(C2=NC(=O)/C(=C/c3ccc4c(cnn4Cc4ccc(Cl)cc4C(F)(F)F)c3)S2)CC1` [Example 127] had an EC50 of 29 nM.
In turn, `CCOC(=O)N1CCCN(C2=NC(=O)/C(=C/c3ccc4c(cnn4Cc4ccc(Cl)cc4C(F)(F)F)c3)S2)CC1` [Example 128, 4-{5-[1-(4-Chloro-2-trifluoromethyl-benzyl)-1H-indazol-5-ylmethylene]-4-oxo-4,5-dihydro-thiazol-2-yl}-[1,4]diazepane-1-carboxylic acid ethyl ester] yielded an EC50 of 32 nM.
Turning to `CCOC(=O)N1CCCN(C2=NC(=O)/C(=C/c3ccc4c(cnn4Cc4ccc(C(F)(F)F)cc4C(F)(F)F)c3)S2)CC1` [Example 129, 4-{5-[1-(2,4-Bis-trifluoromethyl-benzyl)-1H-indazol-5-ylmethylene]-4-oxo-4,5-dihydro-thiazol-2-yl}-[1,4]diazepane-1-carboxylic acid ethyl ester], a half-maximal effect (EC50) was put at 28 nM.
Then `COC(=O)COC1CCN(C2=NC(=O)/C(=C/c3ccc4c(cnn4Cc4ccc(Cl)cc4C(F)(F)F)c3)S2)CC1` [Example 130], with 32 nM; and `O=C(O)COC1CCN(C2=NC(=O)/C(=C/c3ccc4c(cnn4Cc4ccc(Cl)cc4C(F)(F)F)c3)S2)CC1` [Example 131], with 7.8 nM.
With `O=C1N=C(N2CCN[C@@H](CO)C2)S/C1=C\c1ccc2c(cnn2Cc2ccc(Cl)cc2C(F)(F)F)c1` [Example 132, 5-[1-(4-Chloro-2-trifluoromethyl-benzyl)-1H-indazol-5-ylmethylene]-2-(3-(R)-hydroxymethyl-piperazin-1-yl)-thiazol-4-one], the EC50 stood at 10.7 nM.
Molecule `O=C1N=C(N2CCCN(CCF)CC2)S/C1=C\c1ccc2c(cnn2Cc2ccc(Cl)cc2C(F)(F)F)c1` [Example 133, 5-[1-(4-Chloro-2-trifluoromethyl-benzyl)-1H-indazol-5-ylmethylene]-2-[4-(2-fluoro-ethyl)-[1,4]diazepan-1-yl]-thiazol-4-one] came in with an EC50 of 4.1 nM.
Then `CS(=O)(=O)N1CCCN(C2=NC(=O)/C(=C/c3ccc4c(cnn4Cc4ccc(Cl)cc4C(F)(F)F)c3)S2)CC1` [Example 134, 5-[1-(4-Chloro-2-trifluoromethyl-benzyl)-1H-indazol-5-ylmethylene]-2-(4-methanesulfonyl-[1,4]diazepan-1-yl)-thiazol-4-one], with 5 nM.
`O=C1N=C(N2CCCN(CC(F)(F)F)CC2)S/C1=C\c1ccc2c(cnn2Cc2ccc(Cl)cc2C(F)(F)F)c1` [Example 135, 5-[1-(4-Chloro-2-trifluoromethyl-benzyl)-1H-indazol-5-ylmethylene]-2-[4-(2,2,2-trifluoro-ethyl)-[1,4]diazepan-1-yl]-thiazol-4-one] displayed an EC50 of 52 nM.
For the molecule `O=C1N=C(N2CCCN(C(=O)OCC(F)(F)F)CC2)S/C1=C\c1ccc2c(cnn2Cc2ccc(Cl)cc2C(F)(F)F)c1` [Example 136, 4-{5-[1-(4-Chloro-2-trifluoromethyl-benzyl)-1H-indazol-5-ylmethylene]-4-oxo-4,5-dihydro-thiazol-2-yl}[1,4]diazepane-1-carboxylic acid 2,2,2-trifluoro-ethyl ester], the EC50 was determined as 34 nM.
As for `O=C1N=C(N2CCC(C(=O)O)C2)S/C1=C\c1ccc2c(cnn2Cc2ccc(Cl)cc2C(F)(F)F)c1` (centres unmarked) [Example 137, 1-{5-[1-(4-Chloro-2-trifluoromethyl-benzyl)-1H-indazol-5-ylmethylene]-4-oxo-4,5-dihydro-thiazol-2-yl}-pyrrolidine-3-carboxylic acid], the midpoint of the response, the EC50, lay at 14 nM.

For the origin of these results see US8399681B2, “Substituted aminothiazolone indazoles as estrogen related receptor-alpha modulators” (Janssen Pharmaceutica NV, priority 2009, dated 2013).
